Converted amounts (≈) assume the structure as drawn. Blank lines part the entries; values can stand above or below the compound they belong to. The source made the active and inactive calls. The rule behind the calls is not given here.
Legend:
[1] = tested on: U2OS; assay: Cytotoxicity against human U2OS cells assessed as reduction in cell viability incubated for 72 hrs by celltiter glo assay
[2] = biological target: Oxidized purine nucleoside triphosphate hydrolase (Homo sapiens) (UniProt P36639); assay: Inhibition of MTH1 in human U2OS cells assessed as activation of p53 at 2.25 uM incubated for 4 and 24 hrs by Peggy sue Western blot assay; format: cell-based
[3] = Dissociation constant, pKa of the compound; format: physicochemical
[4] = Permeability across apical to basolateral side in human Caco2 cells; details: Caco-2
[5] = Permeability across basolateral to apical side in human Caco2 cells; format: ADME, cell-based; details: Caco-2, read-out: permeability
[6] = tested on: U2OS; assay: Induction of DNA damage in human U2OS cells assessed as increase in gammaH2AX foci formation at 20 uM incubated for 72 hrs by immunostaining based confocal microscopy; format: functional, cell-based
[7] = Kinetic solubility of compound at pH 2; details: buffer
[8] = Kinetic solubility of compound at pH 7; details: buffer
[9] = Oral bioavailability in Sprague-Dawley rat at 5 mg/kg; format: ADME, organism-based; details: in vivo
[10] = Clearance in Sprague-Dawley rat at 5 mg/kg, po or 1 mg/kg, iv; format: ADME, organism-based; details: in vivo
[11] = Volume of distribution in Sprague-Dawley rat at 5 mg/kg, po or 1 mg/kg, iv; format: ADME, organism-based; details: in vivo
[12] = Half life in Sprague-Dawley rat at 5 mg/kg, po or 1 mg/kg, iv; format: ADME, organism-based; details: in vivo
[13] = biological target: Voltage-gated inwardly rectifying potassium channel KCNH2 (Homo sapiens, UniProt Q12809); assay: Inhibition of human ERG
Voltage-gated inwardly rectifying potassium channel KCNH2, sequence (Q12809 whole entry, canonical isoform): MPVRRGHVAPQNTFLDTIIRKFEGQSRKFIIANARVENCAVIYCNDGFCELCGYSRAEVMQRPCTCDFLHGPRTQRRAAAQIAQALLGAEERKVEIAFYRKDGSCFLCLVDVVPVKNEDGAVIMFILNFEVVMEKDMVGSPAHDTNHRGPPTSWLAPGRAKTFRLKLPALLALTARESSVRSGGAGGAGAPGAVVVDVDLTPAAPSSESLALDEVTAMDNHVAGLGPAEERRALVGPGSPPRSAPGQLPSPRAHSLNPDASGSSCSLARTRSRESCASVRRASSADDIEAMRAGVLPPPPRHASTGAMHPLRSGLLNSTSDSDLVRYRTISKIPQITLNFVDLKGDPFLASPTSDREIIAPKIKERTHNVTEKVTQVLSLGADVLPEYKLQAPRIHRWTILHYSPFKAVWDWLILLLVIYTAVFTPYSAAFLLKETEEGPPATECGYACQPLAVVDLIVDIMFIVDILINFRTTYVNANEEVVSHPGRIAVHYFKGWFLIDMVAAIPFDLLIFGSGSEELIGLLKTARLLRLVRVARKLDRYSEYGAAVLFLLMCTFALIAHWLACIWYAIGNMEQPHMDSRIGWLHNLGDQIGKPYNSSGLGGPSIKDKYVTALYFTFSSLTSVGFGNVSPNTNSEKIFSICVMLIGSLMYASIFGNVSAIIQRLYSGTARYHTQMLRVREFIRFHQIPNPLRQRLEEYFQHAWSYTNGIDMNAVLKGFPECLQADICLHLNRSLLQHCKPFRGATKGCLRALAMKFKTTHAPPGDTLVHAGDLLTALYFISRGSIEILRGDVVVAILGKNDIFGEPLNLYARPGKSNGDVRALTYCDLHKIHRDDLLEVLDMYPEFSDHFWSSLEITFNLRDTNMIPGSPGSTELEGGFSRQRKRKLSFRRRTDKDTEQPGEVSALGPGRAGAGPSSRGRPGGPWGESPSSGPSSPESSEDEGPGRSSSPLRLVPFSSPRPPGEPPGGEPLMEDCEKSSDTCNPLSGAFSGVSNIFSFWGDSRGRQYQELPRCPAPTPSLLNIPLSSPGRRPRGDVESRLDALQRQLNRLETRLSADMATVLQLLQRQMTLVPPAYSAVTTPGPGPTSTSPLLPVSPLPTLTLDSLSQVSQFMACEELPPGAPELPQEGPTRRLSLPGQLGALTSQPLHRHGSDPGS

[14] = biological target: CYP isoform (not specified) (Homo sapiens, UniProt P04798+P05177+P05181+P08684+P10632+P10635+P11509+P11712+P13584+P20813+P20815+P20853+P24462+P24903+P33260+P33261+P51589+P78329+P98187+Q02928+Q08477+Q16678+Q16696+Q5TCH4+Q6VVX0+Q7Z449+Q8TAV3+Q96SQ9+Q9HB55); assay: Inhibition of CYP isoform (unknown origin); format: ADME, protein assay
[15] = biological target: T1, Nuclear receptor subfamily 1 group I member 2 (Homo sapiens, UniProt O75469); assay: Activation of human PXR at 15 uM
T1 sequence (O75469 whole entry): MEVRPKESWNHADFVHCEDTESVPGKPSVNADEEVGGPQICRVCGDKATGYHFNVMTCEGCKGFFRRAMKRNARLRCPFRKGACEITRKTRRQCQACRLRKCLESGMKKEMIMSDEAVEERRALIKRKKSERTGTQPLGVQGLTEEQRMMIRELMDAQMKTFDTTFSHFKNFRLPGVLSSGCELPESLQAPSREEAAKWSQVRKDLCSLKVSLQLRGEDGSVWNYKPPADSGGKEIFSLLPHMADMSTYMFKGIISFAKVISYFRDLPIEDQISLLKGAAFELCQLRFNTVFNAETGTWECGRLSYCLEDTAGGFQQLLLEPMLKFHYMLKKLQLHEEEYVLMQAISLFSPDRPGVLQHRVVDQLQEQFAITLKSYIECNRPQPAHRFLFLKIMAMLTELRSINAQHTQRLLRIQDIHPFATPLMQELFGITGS

[16] = Cytotoxicity against human MT4 cells assessed as reduction in cell viability incubated for 72 hrs by celltiter glo assay; format: cell-based
[17] = tested on: SW480; assay: Cytotoxicity against human SW480 cells assessed as reduction in cell viability incubated for 72 hrs by celltiter glo assay; details: SW480, 72 h
[18] = Lipophilicity, logD of the compound at pH 7.4; format: physicochemical; details: buffer
[19] = Chemical stability of compound at pH 6 to 9 at 40 degreeC; format: physicochemical; details: buffer
[20] = Glutathione reactivity of compound; format: physicochemical
[21] = Stability of compound in human plasma assessed as half life; format: ADME, cell-free
[22] = Stability of compound in rat plasma assessed as half life; format: ADME, cell-free

Compound: COc1ccc2nc3[nH]nc(C)c3c(NCCOCCO)c2c1
EC50 [1]: > 20 µM

inhibition [2]: Active
Compound: O=C1c2c(O)ccc(O)c2C(=O)c2c(NCCNCCO)ccc(NCCNCCO)c21

pKa [3]: 3.5
Papp A→B [4]: 37 ×10⁻⁶ cm/s
Papp B→A [5]: 45 ×10⁻⁶ cm/s
Compound: CC(=O)Nc1cc2ncccc2c(-c2cccc(C)c2C)n1

Compound: C[C@H](Oc1cc(-c2cnn(C3CCNCC3)c2)cnc1N)c1c(Cl)ccc(F)c1Cl
EC50 [1]: 6.8 µM

Compound: CNc1cc(N2CCCCC2)nc(N)n1
Activity [6]: inactive

Compound: Nc1nc2cccc(-c3cccc(Cl)c3Cl)n2n1
EC50 [1]: 20.3 µM
Papp A→B [4]: 41 ×10⁻⁶ cm/s
Papp B→A [5]: 34 ×10⁻⁶ cm/s
solubility kinetic [7]: 93 µM (≈ 26 µg/mL)
solubility kinetic [8]: 74 µM (≈ 20.7 µg/mL)
bioavailability [9]: 86%
clearance [10]: 12.2 mL/min/kg
Vd [11]: 2.7 L/kg
half-life [12]: 3.2 h
IC50 [13]: > 25 µM
IC50 [14]: > 25 µM
Activity [15]: Not Active
CC50 at 72 h [16]: > 50 µM
Activity [6]: inactive

Compound: CNc1cc(-c2cccc(Cl)c2Cl)nc(N)n1
EC50 [1]: 0.7 to 1.8 µM
EC50 [17]: 3 µM
CC50 at 72 h [16]: 0.726 µM
Activity [2]: Active
Activity [6]: Active

Compound: Nc1nc(NC2CC2)cc(-c2cccc(Cl)c2Cl)n1
EC50 [1]: 5.6 µM
EC50 [17]: 9.7 µM

Compound: CNc1cc(N(C)[C@@H](C)c2ccccc2)nc(N)n1
EC50 [1]: 24.9 µM

Compound: CC(=O)Nc1cc2c(c(-c3cccc(C)c3C)n1)CCCN2
EC50 [1]: 8.05 µM
pKa [3]: 7.5
Papp A→B [4]: 35 ×10⁻⁶ cm/s
Papp B→A [5]: 32 ×10⁻⁶ cm/s
logD [18]: 2.5
Stability [19]: Stable
Activity [20]: Not Active
solubility kinetic [7]: 97 µM (≈ 28.7 µg/mL)
solubility kinetic [8]: 70 µM (≈ 20.7 µg/mL)
half-life [21]: 4.2 h
half-life [22]: 7.43 h
CC50 at 72 h [16]: 19 µM
Activity [6]: inactive

Compound: Nc1nc2c(-c3cccc(Cl)c3Cl)cccc2[nH]1
EC50 [1]: 14.4 µM
